From US10759816B2, “Heterocyclic compounds as RSV inhibitors” (Enanta Pharmaceuticals, Inc., priority 2016, dated 2020) come the findings set out here.

SMILES strings stand for the structures.

The subject of this assay is genotype A, "Long" strain RSV. Kind of assay: RSV-A in vitro cytoprotection assay in HEp-2 cells (ATPlite readout of cell viability). Format: cell-based, Human respiratory syncytial virus. Particulars: human respiratory syncytial virus, HEp-2, HEp-2 cells, genotype A “Long” strain RSV, cytoprotection; read-out: Human RSV-A (“Long” strain) EC50. In short, it runs like this:
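HEp-2 cells (8,000/well) given 2-fold compound dilutions in duplicate, then infected with RSV-A Long strain stock; viability read by ATPlite luminescence after 4 days. EC50 derived from cytoprotection; cytotoxicity measured on parallel uninfected plate.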
Consider `Cc1cccc(F)c1NC(=O)c1cc2c(s1)-c1ccccc1N(C(=O)c1cccc(N3CCCN(S(C)(=O)=O)CC3)n1)CC2` [Example 384], for which the EC50 was under 400 nM.

`Cc1cccc(F)c1NC(=O)c1cc2c(s1)-c1ccccc1N(C(=O)c1cccc(N3CCCN(S(=O)(=O)C4CCCCC4)CC3)n1)CC2` [Example 385]: the EC50 was under 400 nM.

Regarding `Cc1cccc(F)c1NC(=O)c1cc2c(s1)-c1ccccc1N(C(=O)c1cccc(N3CCCN(S(=O)(=O)c4ccccc4)CC3)n1)CC2` [Example 386], the EC50 is under 400 nM.

In the case of `CC(=O)N1CCCN(c2cccc(C(=O)N3CCc4cc(C(=O)Nc5c(C)cccc5F)sc4-c4ccccc43)n2)CC1` [Example 387], the 50% effective concentration (EC50) is under 400 nM.

In the case of `Cc1cccc(F)c1NC(=O)c1cc2c(s1)-c1ccccc1N(C(=O)c1cccc(N3CCCN(C(=O)C4CC4)CC3)n1)CC2` [Example 388], the EC50 is under 400 nM.

For `Cc1cccc(F)c1NC(=O)c1cc2c(s1)-c1ccccc1N(C(=O)c1cccc(N3C[C@@H](NC(=O)OC(C)(C)C)C[C@@H]3C)n1)CC2` [Example 389], the concentration for a half-maximal effect (EC50) was under 400 nM.

`Cc1cccc(F)c1NC(=O)c1cc2c(s1)-c1ccccc1N(C(=O)c1cccc(N3C[C@@H](N)C[C@@H]3C)n1)CC2` [Example 390]: the EC50 is over 800 nM.

Consider `COC(=O)N[C@H]1C[C@H](C)N(c2cccc(C(=O)N3CCc4cc(C(=O)Nc5c(C)cccc5F)sc4-c4ccccc43)n2)C1` [Example 391], for which the EC50 is under 400 nM.

Regarding `Cc1cccc(F)c1NC(=O)c1cc2c(s1)-c1ccccc1N(C(=O)c1cccc(N3C[C@@H](NS(C)(=O)=O)C[C@@H]3C)n1)CC2` [Example 392], the EC50 lay in the range of 400 to 800 nM.

As to `COc1cccc(Oc2cccc(C(=O)N3CCc4cc(C(=O)NC5CC5)sc4-c4ccccc43)n2)c1` [Example 393], the EC50 was over 800 nM.

In the case of `COc1ncccc1Oc1cccc(C(=O)N2CCc3cc(C(=O)NC4CC4)sc3-c3ccccc32)n1` [Example 394], the concentration giving a half-maximal response (EC50) is over 800 nM.

For the compound `Cc1cccc(F)c1NC(=O)c1cc2c(s1)-c1cc(F)ccc1N(C(=O)c1cccc(N3CCOc4ccccc4C3)n1)CC2` [Example 395], the half-maximal effective concentration (EC50) was under 400 nM.

Turning to `Cc1cccc(F)c1NC(=O)c1ccc2c(c1)CCN(C(=O)c1cccc(N3CCCOCC3)n1)c1ccccc1-2` [Example 396], the EC50 is over 800 nM.

Consider `O=C(NC1CC1)c1ccc2c(c1)CCN(C(=O)c1cccc(N3CCOc4ccccc4C3)n1)c1ccccc1-2` [Example 397], for which the EC50 is over 800 nM.

As to `NNC(=O)c1ccc2c(c1)CCN(C(=O)c1cccc(N3CCOc4ccccc4C3)n1)c1ccccc1-2` [Example 398], the EC50 was over 800 nM.

As for `Cc1cccc(F)c1NC(=O)c1cc2c(s1)-c1ccccc1N(C(=O)c1cccc(N3CCOCC(F)(F)C3)n1)CC2` [Example 400], the EC50 is under 400 nM.

Regarding `Cc1cccc(F)c1NC(=O)c1cc2c(s1)-c1ccccc1N(C(=O)c1cccc(N3CCCOCC3=O)n1)CC2` [Example 401], the 50% effective concentration (EC50) is over 800 nM.

Take `Cc1cccc(F)c1NC(=O)c1cc2c(s1)-c1ccccc1N(C(=O)c1cccc(N3CCCOC(C)(C)C3)n1)CC2` [Example 402]: the EC50 was under 400 nM.

Consider `Cc1cccc(F)c1NC(=O)c1cc2c(s1)-c1ccccc1N(C(=O)c1cccc(N3CCCC(F)(F)CC3)n1)CC2` [Example 403], for which the concentration for a half-maximal effect (EC50) was under 400 nM.

As to `Cc1cccc(F)c1NC(=O)c1cc2c(s1)-c1ccccc1N(C(=O)c1cccc(N3CCCOc4ccccc43)n1)CC2` [Example 404], the EC50 was under 400 nM.

For the compound `Cc1cccc2c1CN(c1cccc(C(=O)N3CCc4cc(C(=O)Nc5c(C)cccc5F)sc4-c4ccccc43)n1)CCO2` [Example 405], the EC50 was under 400 nM.

`Cc1cccc(F)c1NC(=O)c1cc2c(s1)-c1ccccc1N(C(=O)c1cccc(N3CCCS(=O)(=O)c4ccccc43)n1)CC2` [Example 406]: the EC50 is 400 to 800 nM.

Regarding `COc1ccc(=O)n(-c2cccc(C(=O)N3CCc4cc(C(=O)Nc5c(C)cccc5F)sc4-c4ccccc43)n2)c1` [Example 407], the EC50 was over 800 nM.

In the case of `COc1ccc(Oc2cccc(C(=O)N3CCc4cc(C(=O)Nc5c(C)cccc5F)sc4-c4ccccc43)n2)nc1` [Example 408], the concentration giving a half-maximal response (EC50) is over 800 nM.

As to `COc1cccc(Nc2cccc(C(=O)N3CCc4cc(C(=O)NC5CC5)sc4-c4ccccc43)n2)n1` [Example 409], the concentration for a half-maximal effect (EC50) was over 800 nM.

As for `COc1ncccc1Nc1cccc(C(=O)N2CCc3cc(C(=O)NC4CC4)sc3-c3ccccc32)n1` [Example 410], the EC50 is over 800 nM.

In the case of `O=C(NC1CC1)c1cc2c(s1)-c1ccccc1N(C(=O)c1cccc(Nc3cccc4c3C(=O)NC4)n1)CC2` [Example 411], the EC50 is over 800 nM.

For `CN1Cc2cccc(Nc3cccc(C(=O)N4CCc5cc(C(=O)NC6CC6)sc5-c5ccccc54)n3)c2C1=O` [Example 412], the 50% effective concentration (EC50) was over 800 nM.

For `Nc1cccc2c1C(=O)N(c1cccc(C(=O)N3CCc4cc(C(=O)NC5CC5)sc4-c4ccccc43)n1)C2` [Example 413], the EC50 is over 800 nM.

With `O=C(NC1CC1)c1cc2c(s1)-c1ccccc1N(C(=O)c1cccc(N3CCOc4ccccc4C3=O)n1)CC2` [Example 414], the EC50 is over 800 nM.

As to `COc1ccn(-c2cccc(C(=O)N3CCc4cc(C(=O)Nc5c(C)cccc5F)sc4-c4ccccc43)n2)c(=O)c1` [Example 415], the EC50 was over 800 nM.

With `Cc1cccc(F)c1NC(=O)c1cc2c(s1)-c1ccccc1N(C(=O)c1cccc(N3CCOC4(CCCC4)C3)n1)CC2` [Example 416], the EC50 was under 400 nM.

For `Cc1cccc(F)c1NC(=O)c1cc2c(s1)-c1ccccc1N(C(=O)c1cccc(N3CCOc4ccc(Cl)cc4C3)n1)CC2` [Example 417], the concentration for a half-maximal effect (EC50) is under 400 nM.

For `Cc1cccc(F)c1NC(=O)c1cc2c(s1)-c1ccccc1N(C(=O)c1cccc(N3CCS(=O)(=O)CC3)n1)CC2` [Example 418], the concentration giving a half-maximal response (EC50) was under 400 nM.

Consider `Cc1cccc(F)c1NC(=O)c1cc2c(s1)-c1ccccc1N(C(=O)c1cccc(N3CCS(=O)(=O)c4ccccc4C3)n1)CC2` [Example 419], for which the EC50 was under 400 nM.

On to `COCC(Nc1cccc(C(=O)N2CCc3cc(C(=O)Nc4c(C)cccc4F)sc3-c3ccccc32)n1)C1CC1` (stereo not shown) [Example 420], for which the EC50 was in the range of 400 to 800 nM.

With `COCC(C)(C)CNc1cccc(C(=O)N2CCc3cc(C(=O)Nc4c(C)cccc4F)sc3-c3ccccc32)n1` [Example 421], the concentration for a half-maximal effect (EC50) was under 400 nM.

Take `Cc1cccc(F)c1NC(=O)c1cc2c(s1)-c1ccccc1N(C(=O)c1cccc(NCCS(C)(=O)=O)n1)CC2` [Example 422]: the EC50 is over 800 nM.

Regarding `COCCN(c1cccc(C(=O)N2CCc3cc(C(=O)Nc4c(C)cccc4F)sc3-c3ccccc32)n1)S(C)(=O)=O` [Example 423], the EC50 was over 800 nM.

Regarding `Cc1cccc(F)c1NC(=O)c1cc2c(s1)-c1ccccc1N(C(=O)c1cccc(N3C(=O)OC[C@H]3c3ccccc3)n1)CC2` [Example 424], the EC50 was over 800 nM.

For `Cc1cccc(F)c1NC(=O)c1cc2c(s1)-c1ccccc1N(C(=O)c1cccc(N3C(=O)OC[C@@H]3c3ccccc3)n1)CC2` [Example 425], the half-maximal effective concentration (EC50) was under 400 nM.

`Cc1cccc(F)c1NC(=O)c1cc2c(s1)-c1ccccc1N(C(=O)c1cccc(N3CC4(COC4)C3)n1)CC2` [Example 426]: the concentration giving a half-maximal response (EC50) was over 800 nM.

On to `Cc1cccc(F)c1NC(=O)c1cc2c(s1)-c1ccccc1N(C(=O)c1cccc(N3CCC4(COC4)C3)n1)CC2` [Example 427], for which the 50% effective concentration (EC50) is over 800 nM.

For the compound `Cc1cccc(F)c1NC(=O)c1cc2c(s1)-c1ccccc1N(C(=O)c1cccc(N3CC4(C3)CS(=O)(=O)C4)n1)CC2` [Example 428], the concentration for a half-maximal effect (EC50) is over 800 nM.

With `Cc1cccc(F)c1NC(=O)c1cc2c(s1)-c1ccccc1N(C(=O)c1cccc(N3C[C@H]4C[C@@H]3CO4)n1)CC2` [Example 429], the EC50 was under 400 nM.

In the case of `Cc1cccc(F)c1NC(=O)c1cc2c(s1)-c1ccccc1N(C(=O)c1cccc(N3C[C@@H]4C[C@H]3CO4)n1)CC2` [Example 430], the 50% effective concentration (EC50) was under 400 nM.

Turning to `Cc1cccc(F)c1NC(=O)c1cc2c(s1)-c1ccccc1N(C(=O)c1cccc(N3CCS(=O)(=O)C(C)(C)C3)n1)CC2` [Example 431], the EC50 was under 400 nM.

As to `Cc1cccc(F)c1NC(=O)c1cc2c(s1)-c1ccccc1N(C(=O)c1cccc(N3CCS(=O)(=O)CC3C)n1)CC2` (stereo not shown) [Example 432], the half-maximal effective concentration (EC50) is under 400 nM.

Regarding `Cc1cccc(F)c1NC(=O)c1cc2c(s1)-c1ccccc1N(C(=O)c1cccc(N3CCS(=O)(=O)c4ccccc4[C@H]3C)n1)CC2` [Example 433], the concentration giving a half-maximal response (EC50) was over 800 nM.

With `Cc1cccc(F)c1NC(=O)c1cc2c(s1)-c1ccccc1N(C(=O)c1cccc(N3CCS(=O)(=O)c4ccccc4[C@@H]3C)n1)CC2` [Example 434], the EC50 is over 800 nM.

Turning to `Cc1cccc(F)c1NC(=O)c1cc2c(s1)-c1ccccc1N(C(=O)c1cccc(N3CCS(=O)(=O)c4c(F)cccc4C3)n1)CC2` [Example 435], the concentration for a half-maximal effect (EC50) was under 400 nM.

In the case of `Cc1cccc(F)c1NC(=O)c1cc2c(s1)-c1ccccc1N(C(=O)c1cccc(N3CCS(=O)(=O)c4ccc(F)cc4C3)n1)CC2` [Example 436], the concentration for a half-maximal effect (EC50) was under 400 nM.

Regarding `COc1ccc2c(c1)S(=O)(=O)CCN(c1cccc(C(=O)N3CCc4cc(C(=O)Nc5c(C)cccc5F)sc4-c4ccccc43)n1)C2` [Example 437], the half-maximal effective concentration (EC50) is under 400 nM.

On to `Cc1cccc(F)c1NC(=O)c1cc2c(s1)-c1ccccc1N(C(=O)c1cccc(NC3CCS(=O)(=O)C3)n1)CC2` (stereo not shown) [Example 438], for which the EC50 is under 400 nM.

Regarding `Cc1cccc(F)c1NC(=O)c1cc2c(s1)-c1ccccc1N(C(=O)c1cccc(N(C)C3CCS(=O)(=O)C3)n1)CC2` (stereo not shown) [Example 439], the EC50 is over 800 nM.

`Cc1cccc(F)c1NC(=O)c1cc2c(s1)-c1ccccc1N(C(=O)c1cccc(NC3CS(=O)(=O)C3)n1)CC2` [Example 440]: the EC50 was under 400 nM.

In the case of `Cc1cccc(F)c1NC(=O)c1cc2c(s1)-c1ccccc1N(C(=O)c1cccc(N3CC(S(C)(=O)=O)C3)n1)CC2` [Example 441], the half-maximal effective concentration (EC50) is over 800 nM.

As to `Cc1cccc(F)c1NC(=O)c1cc2c(s1)-c1ccccc1N(C(=O)c1cccc(N3CC4CC5CC(C4)CC3C5)n1)CC2` [Example 442], the concentration for a half-maximal effect (EC50) is over 800 nM.
